Tests used:
[1] = test system: various phytopathogenic fungi for plants and hazardous microorganism for industrial materials; experiment: microbe, parasite or virus in culture; type: cell-based; set-up: dose or concentration left out as unconfirmed
[2] = Mycelial growth inhibition on plate medium against industrial material deteriorating microorganisms, treatment at 50 mg/l; details: read-out: Growth inhibition grade
Protocol: Compound (I) was dissolved in 2 ml of dimethyl sulfoxide. 0.6 ml of this solution was added to 60 ml of a PDA medium (potato dextrose agar medium) and at about 60 degrees C., which was mixed thoroughly in a 100-ml conical flask, and poured into a dish, where it was solidified, thereby obtaining a plate medium containing the inventive compound at a certain concentration.
On the other hand, a subject microorganism previously cultured on a plate medium was cut out using a cork borer whose diameter was 4 mm, and inoculated to the test compound-containing plate medium described above. […] The growth degree of the microorganism on the test compound-containing plate medium was compared with the growth degree of the microorganism in the untreated group, and % mycelial growth inhibition was calculated by the following equation.
wherein R=% mycelial extension inhibition, dc=flora diameter in untreated plate, dt=flora diameter in treated plate.
The results obtained were evaluated as one of the 5 grades in accordance with the following criteria.
<Growth Inhibition Grade>
4: % Mycerial growth inhibition of less than 80 to 60% or higher
3: % Mycerial growth inhibition of less than 60 to 40% or higher
2: % Mycerial growth inhibition of less than 40 to 20% or higher

[3] = Alternaria alternata, read-out: Growth inhibition grade, A.m
[4] = Fusarium graminearum, read-out: Growth inhibition grade, F.g
[5] = Parastagonospora nodorum, read-out: Growth inhibition grade, P.n
[6] = Pyricularia oryzae, read-out: Growth inhibition grade, P.o
[7] = Rhynchosporium secalis, read-out: Growth inhibition grade, R.sec
[8] = Sclerotinia sclerotiorum, read-out: Growth inhibition grade, S.s
[9] = Ustilago nuda, read-out: Growth inhibition grade, U.n
[10] = read-out: Growth inhibition grade, B.c
[11] = read-out: Growth inhibition grade, F.c
[12] = read-out: Growth inhibition grade, G.f
[13] = read-out: Growth inhibition grade, P.h

SMILES | inhibition [1, 3] [%] | inhibition [1, 4] [%] | inhibition [1, 5] [%] | inhibition [1, 6] [%] | inhibition [1, 7] [%] | inhibition [1, 8] [%] | inhibition [1, 9] [%] | inhibition [1, 10] [%] | inhibition [1, 11] [%] | inhibition [1, 12] [%] | inhibition [1, 13] [%] | inhibition at 50 µg/mL [2] [%] | melting point [°C]
OC(Cn1cncn1)(C1CC1(Cl)Cl)C1(Cl)CC1 (single isomer, unassigned) [I-2a, 1-(1-chlorocyclopropyl)-1-(2,2-dichlorocyclopropyl)-2-(1H-1,2,4-triazol-1-yl)ethanol] | > 80 | > 80 | > 80 | > 80 | > 80 | > 80 | > 80 | > 80 | > 80 | > 80 | > 80 | 60 to 80 | 
OC(CC1CC1(Br)Br)(Cn1cncn1)C1(Cl)CC1 (single isomer, unassigned) [I-210a, 2-(1-chlorocyclopropyl)-1-(2,2-dibromocyclopropyl)-3-(1H-1,2,4-triazol-1-yl)propan-2-ol] | > 80 | > 80 | > 80 | > 80 | > 80 | > 80 | > 80 | > 80 | > 80 | > 80 | > 80 | 60 to 80 | 114
OC(CC1CC1(Cl)Cl)(CC1CC1(Cl)Cl)Cn1cncn1 (single isomer, unassigned) [I-277a, 1,3-bis(2,2-dichlorocyclopropyl)-2-(1H-1,2,4-triazol-1-ylmethyl)propan-2-ol] |  |  |  |  |  |  |  |  |  |  |  |  | 114 to 115
OC(CC1CC1(Cl)Cl)(CC1CC1(Cl)Cl)Cn1cncn1 (single isomer, unassigned) [I-277b, 1,3-bis(2,2-dichlorocyclopropyl)-2-(1H-1,2,4-triazol-1-ylmethyl)propan-2-ol] |  |  |  |  |  |  |  |  |  |  |  |  | 105 to 106.5
OC(CCC1CC1(Cl)Cl)(Cn1cncn1)C1(Cl)CC1 (single isomer, unassigned) [I-607a, 2-(1-chlorocyclopropyl)-4-(2,2-dichlorocyclopropyl)-1-(1H-1,2,4-triazol-1-yl)butan-2-ol] | > 80 | > 80 | > 80 | > 80 | > 80 | > 80 | > 80 | > 80 | > 80 | > 80 | > 80 |  | 130 to 131
OC(CCC1CC1(Cl)Cl)(Cn1cncn1)C1(Cl)CC1 (single isomer, unassigned) [I-607b, 2-(1-chlorocyclopropyl)-4-(2,2-dichlorocyclopropyl)-1-(1H-1,2,4-triazol-1-yl)butan-2-ol] |  |  |  |  |  |  |  |  |  |  |  | 60 to 80 | 83 to 84

Source: US20120238762A1, “AZOLE DERIVATIVES AND METHODS FOR PRODUCING THE SAME, INTERMEDIATE COMPOUNDS FOR THE DERIVATIVES AND METHODS FOR PRODUCING THE SAME, AND AGRO-HORTICULTURAL AGENTS AND INDUSTRIAL MATERIAL PROTECTING AGENTS CONTAINING THE DERIVATIVES” (KUREHA CORPORATION, priority 2009, published 2012)
